Assays:
[1] = tested on: Staphylococcus aureus ATCC 6538/K3212; assay type: cell-based; conditions: S. aureus; 100 mg/L in water; positive control
Description: (§1) The antibacterial activity of the peptides shown in Table 2 was tested at a concentration of 5,000 mg/L in an MPN suspension test (MPN=Most Probable Number) on various microorganisms (Staphylococcus aureus ATCC 6538/[…], initial bacterial count 3.6E±0.6; Klebsiella pneumoniae ATCC 4352/[…], initial bacterial count 6.1E±06). The respective peptide solutions were dissolved in water (control), detergent without enzyme (A) and detergent with enzyme (B) at a concentration of 5,000 mg/L. The MPN suspension test was performed in deep-well microtiter plates (1,000 μl volume per well), each well containing 800 μl application concentration (AWK, prepared in distilled water) with a 1.25-fold concentration of the test substance (final concentration: 5,000 mg/L). In each case, 100 μl of the bacterial suspension was added (final concentration: 1.0E±08 CFU/ml). […] After at least 5 min and a maximum of 30 min inactivation, the number of living test germ cells was determined. […] For evaluation, the growth in the wells, indicated by turbidity of the nutrient broth, was determined visually or using the Tecan reader. The microbicidal activity was calculated using the following formula: RF=K/D or log 10K-log10D, where RF=reduction factor, K=number of CFU/ml without exposure to the product (water control) and D=number of CFU/ml after exposure to the product.

[2] = tested on: Klebsiella pneumoniae ATCC 4352/K2510; assay type: cell-based; conditions: K. pneumoniae; 100 mg/L in water; positive control
Description: as §1

Benzalkonium chloride
Log reduction, Water [1]: >4.65
Log reduction, Water [2]: >4.40

From patent publication US20250171715A1, “DETERGENT AND CLEANING AGENT CONTAINING ANTIMICROBIAL PEPTIDE” (HENKEL AG & CO. KGAA, priority 2023, published 2025)
